Measured values taken from US20090075867A1, “Triazine compounds and compositions thereof for the treatment of cancers” (priority 2005, published 2009).
Where two headings read alike, the source gives them in different places.

Columns and labels:
[1] = system: PBML, Peripheral Blood Mononuclear Leukocytes; assay: In vitro cytotoxicity (MTT) on PBML; assay type: cell-based; conditions: Leukocyte
Description: (§1) This assay was performed to determine the effect of compounds of the present invention on cell cytotoxicity. Cells were incubated in presence or absence of compounds in their respective conditioned media. […] The supernatant was discarded and 100 μl of dimethylsulfoxide (DMSO) was added. Absorbance was read at […] with an ELISA Tecan SUNRISE™ plate reader. The control group consisted of cells without compounds and is referred to as 100% of viable cells. IC50 was determined using PRISM® software.
(§2) The predictive utility of cell-based cytotoxicity assays to assess the potential in vivo anticancer activity of compounds with selected cancer cell lines is well established in the art and the use of whole cells, instead of isolated protein receptors or enzymes, provides a more reliable determination of activity. See, for example, Paull et al. J. Natl. Cancer Inst. 81:1088-1092 (1989); Monks et al. J. Natl. Cancer Inst. 83:757-766 (1991); Bandes et al. J. Natl. Cancer Inst. 86:770-775 (1994); and Kamate et al. Intl. J. Cancer 100:571-579 (2002).

[2] = system: NHDF, Normal Human Dermal Fibroblast; assay: In vitro cytotoxicity (MTT) on NHDF; assay type: cell-based
Description: as §1, §2

[3] = system: PC-3, human prostate carcinoma cell; assay: In vitro cytotoxicity (MTT) on PC-3; assay type: cell-based
Description: as §1, §2

[4] = system: B16F10, murine melanoma cell; assay: In vitro cytotoxicity (MTT) on B16F10; assay type: cell-based; conditions: Mus musculus, B16-F10
Description: as §1, §2

[5] = system: P815, murine mastocytoma cell; assay: In vitro cytotoxicity (MTT) on P815; assay type: cell-based; conditions: Mus musculus
Description: as §1, §2

B16F10 lung metastases = assay type: in vivo
Description: Female 6-8-week old C57BL/6 mice were injected intravenously on day 0 with 1-2.5×10^5 B16F10 melanoma cells from ATCC (source of cell culture, Dr. I. J. Fidler). B16F10 melanoma cells are a highly metastatic cell line which preferentially forms nodules in the lungs. Cells were cultured in DMEM supplemented with 10% fetal bovine serum. […] Fourteen days after inoculation, mice were sacrificed and their lungs were removed, rinsed in PBS, and placed in Bouin's fixative. The number of metastatic nodules (black colonies) on the surface of the lungs were counted.

DA-3 = assay: In vitro cytotoxicity (MTT) on DA-3; assay type: cell-based, BALB/c mice; conditions: Mus musculus
Description: as §1, §2
The syngeneic tumor DMBA3 (DA-3, breast carcinoma model) arose from a preneoplastic lesion treated with 7,12-dimethylbenzanthracene in female BALB/c mice. DA-3 cells were grown as monolayer cultures in plastic flasks in RPMI-1640 containing 0.1 mM nonessential amino acids, 0.1 μM sodium pyruvate, 2 mM L-glutamine. This was further supplemented with 50 μM 2-mercaptoethanol and 10% fetal bovine serum. The DA-3 tumors were serially passage in vivo by intradermal inoculation of 5×10^5 viable tumor cells to produce localized tumors in 6- to 8-week old BALB/c mice. The animals were then serially monitored by manual palpation for evidence of tumor. Mice were treated at day 11, 18 and 25 with cyclophosphamide (100 mg/kg) and at day 11, 12, 13, 15, 18, 20, 22, 25, 27 and 29 with compound 1, 2, 3 or 8 (50 mg/kg). Mice were sacrificed at day 43. Serial tumor volume was obtained by bi-dimensional diameter measurements with calipers, using the formula 0.4 (a×b^2) where “a” was the major tumor diameter and “b” the minor perpendicular diameter. […] The National Cancer Institute (USA) defines the product as effective if T/C is ≦40%.

[6] = system: CAKI-2, human kidney cell; assay: In vitro cytotoxicity (MTT) on CAKI-2; assay type: cell-based
Description: as §1, §2

Hep-G2, human liver cell = assay: In vitro cytotoxicity (MTT) on Hep-G2; assay type: cell-based
Description: as §1, §2

[7] = FIG. 3, 50 mg/kg i.v. on day -3, -2, -1, 3, 5 and 7, p<0.001

Structure (SMILES) | IC50 ([1]; 24-hour cell culture) | IC50 ([1]; 72-hour cell culture) | IC50 ([2]; 24-hour cell culture) | IC50 ([2]; 72-hour cell culture) | IC50 ([3]; 24-hour cell culture) | IC50 ([3]; 72-hour cell culture) | IC50 ([4]; 24-hour cell culture) | IC50 ([4]; 72-hour cell culture) | IC50 ([5]; 24-hour cell culture) | IC50 ([5]; 72-hour cell culture) | inhibition of the number of tumor nodules in lungs (B16F10 lung metastases; FIG. 5, p<0.05) | IC50 (DA-3; 24-hour cell culture) | inhibition of the number of tumor nodules in lungs (B16F10 lung metastases; [7]) | IC50 (DA-3; 72-hour cell culture) | reduction of the number of tumor nodules (B16F10 lung metastases; FIG. 4, used alone, compound 50 mg/kg i.v., doxorubicin 1 mg/kg) | IC50 ([6]; 24-hour cell culture) | IC50 ([6]; 72-hour cell culture) | IC50 (Hep-G2, human liver cell; HepG2, 24-hour cell culture) | IC50 (Hep-G2, human liver cell; HepG2, 72-hour cell culture)
CN(C)c1nc(NCCc2ccc(Nc3nc(Nc4cccc(N)c4)nc(N(C)C)n3)cc2)nc(Nc2cccc(N)c2)n1 [Compound 7] | > 100 µM | 79 µM | > 100 µM | > 100 µM | 85 µM | 8 µM | 2.2 µM | 3 µM | 20 µM | 1.3 µM |  |  |  |  |  |  |  |  | 
Nc1cccc(Nc2nc(NCCO)nc(NCCc3ccc(Nc4nc(NCCc5ccccc5N)nc(Nc5cccc(N)c5)n4)cc3)n2)c1 [Compound 17] |  |  |  |  | 11.6 µM | 4 µM | 1.2 µM | 3.6 µM | 14.5 µM | 1.5 µM |  |  |  |  |  |  |  |  | 
Nc1cccc(Nc2nc(NCCO)nc(Nc3cccc(Nc4nc(NCCO)nc(Nc5cccc(F)c5)n4)c3)n2)c1 [Compound 14] |  |  |  |  | 29.9 µM | 15.6 µM | 2.6 µM | 10.2 µM | 13.1 µM | 7.8 µM | 50% |  |  |  |  |  |  |  | 
CN(C)c1nc(Nc2ccc(CCNc3nc(NCCO)nc(Nc4cccc(N)c4)n3)cc2)nc(Nc2cccc(N)c2)n1 [Compound 16] |  |  |  |  | 20.3 µM | 5.1 µM | 0.5 µM | 3.5 µM | 12.6 µM | 2.4 µM |  |  |  |  |  |  |  |  | 
CC(Nc1nc(Nc2cccc(N)c2)nc(Nc2cccc(N)c2)n1)c1cccc(N)c1 (centres unmarked) [Compound 10] | > 100 µM | > 100 µM | > 100 µM | > 100 µM | 74 µM |  | 62 µM | 36 µM | > 100 µM | 36.6 µM |  | > 100 µM | significant inhibition |  |  |  |  |  | 
Nc1cccc(CCNc2nc(Nc3ccc(CCNc4nc(NCCO)nc(Nc5cccc(N)c5)n4)cc3)nc(Nc3cccc(N)c3)n2)c1 [Compound 15] |  |  |  |  | 10.9 µM | 4.3 µM | 1.8 µM | 2.9 µM | 13.4 µM | 3.3 µM |  |  |  |  |  |  |  |  | 
CN(C)c1nc(NCCc2ccc(Nc3nc(NCCO)nc(Nc4cccc(N)c4)n3)cc2)nc(Nc2cccc(N)c2)n1 [Compound 12] |  |  |  |  | 11 µM | 3.3 µM | 1.2 µM | 2 µM | 13.5 µM | 2.8 µM |  |  |  |  |  |  |  |  | 
Nc1cccc(Nc2nc(NCCO)nc(Nc3ccc(Nc4nc(NCCO)nc(Nc5cccc(F)c5)n4)cc3)n2)c1 [Compound 19] |  |  | 19.4 µM |  | 8.2 µM | 5.7 µM | 2.8 µM | 6.2 µM | 16.4 µM | 8.6 µM |  | 4.5 µM |  | 13.4 µM |  |  |  |  | 
CN1CCN(c2nc(NCCc3ccc(Nc4nc(Nc5cccc(N)c5)nc(N5CCN(C)CC5)n4)cc3)nc(Nc3cccc(N)c3)n2)CC1 [Compound 18] |  |  |  |  | 12.2 µM | 10.3 µM | 1.1 µM | 0.6 µM | 2.5 µM | 0.7 µM |  |  |  |  |  |  |  |  | 
Nc1cccc(Nc2nc(NCCNc3nc(Nc4cccc(N)c4)nc(Nc4cccc(O)c4)n3)nc(Nc3cccc(O)c3)n2)c1 [Compound 11] |  |  |  |  | 4.4 µM | 4.9 µM | 1.4 µM | 6.3 µM | 21.2 µM | 4.8 µM |  |  |  |  |  |  |  |  | 
COc1cccc2c1C(=O)c1c(O)c3c(c(O)c1C2=O)C[C@@](O)(C(=O)CO)C[C@@H]3O[C@H]1C[C@H](N)[C@H](O)[C@H](C)O1 [doxorubicin, reference compound] |  |  |  |  |  |  |  |  |  |  |  |  |  |  | 90% |  |  |  | 
Oc1ccc(CCNc2nc(NCCNc3nc(NCCc4ccc(O)cc4)nc(Nc4ccccc4)n3)nc(Nc3ccccc3)n2)cc1 [Compound 1] | 98 µM | 45 µM | > 100 µM | 16 µM | 8.3 µM | 8.3 µM | 6 µM | 6 µM | 34 µM | 34 µM |  | 4 µM | significant inhibition | 4.2 µM |  | > 40 µM | 15 µM | 19 µM | 23 µM
Nc1cccc(Nc2nc(NCCO)nc(NCc3cccc(F)c3)n2)c1 [Compound 9] | > 100 µM | > 100 µM | > 100 µM | > 100 µM | > 100 µM | > 100 µM | > 100 µM | 91 µM | > 100 µM | 43 µM |  |  |  |  |  |  |  |  | 
Nc1cccc(Nc2nc(NCCO)nc(Nc3ccc(Nc4nc(NCCO)nc(Nc5cccc(N)c5)n4)cc3)n2)c1 [Compound 4] | 100 µM | > 100 µM | > 100 µM | > 100 µM | 78 µM | 37 µM | 12 µM | 37 µM | 86 µM | 32 µM |  |  |  |  |  |  |  |  | 
Nc1cccc(Nc2nc(NCCO)nc(Nc3cccc(Nc4nc(NCCO)nc(Nc5cccc(N)c5)n4)c3)n2)c1 [Compound 6] | > 100 µM | > 100 µM | > 100 µM | > 100 µM | 63 µM |  | 2.6 µM |  | > 100 µM | > 100 µM |  | 30 µM |  |  |  |  |  |  | 
CN1CCN(c2nc(Nc3ccc(CCNc4nc(NCCO)nc(Nc5cccc(N)c5)n4)cc3)nc(Nc3cccc(N)c3)n2)CC1 [Compound 13] |  |  |  |  | 11 µM | 6.1 µM | 1.9 µM | 2.2 µM | 6.5 µM | 2.1 µM |  |  |  |  |  |  |  |  | 
Nc1cccc(Nc2nc(N)nc(Nc3cccc(Nc4nc(N)nc(Nc5cccc(N)c5)n4)c3)n2)c1 [Compound 5] | > 100 µM | > 100 µM | > 100 µM | 78 µM | 50 µM | 26 µM | 8.5 µM | 39 µM | > 100 µM | 44.7 µM |  | 20 µM |  |  |  |  |  |  | 
Nc1ccc(CCNc2nc(NCCNc3nc(NCCc4ccc(N)cc4)nc(Nc4cccc(N)c4)n3)nc(Nc3cccc(N)c3)n2)cc1 [Compound 3] | > 100 µM | > 100 µM | > 100 µM | > 100 µM | > 100 µM | 15 µM | 4 µM | 6 µM | 33 µM | 3 µM |  |  |  |  |  | > 40 µM |  | > 40 µM | 
